Patent US20230329236A1, “HERBICIDAL PYRIMIDINE DERIVATIVES” (MoA Technology Limited, priority 2020, published 2023)

Columns and labels:
Details in all cases: 336 h, Table 3, post-emergence, 14±1 days post application
[1] = tested on: Lolium multiflorum (LOLMU); assay: Post-emergence glasshouse test, visual injury, LOLMU; assay type: in vivo
Method: (§1) Seeds of a variety of test species are grown in a sandy loam soil mixture, Lolium multiflorum (LOLMU), Amaranthus retroflexus (AMARE), Echinochloa crus-gaffi (ECHCG), Veronica persica (VERPE), Glycine max (GLXMA), Oryza sativa (ORYSA), Zea mays (ZEAMX), spring wheat (TRZAS), Ipomoea hederacea (IPOHE), Ipomoea purpurea (PHBPU), Stellaria media (STEME), Solanum nigrum (SOLNI), Digitaria sanguinalis (DIGSA), Setaria italica (SETIT), Alopecurus myosuroides (ALOMY) and Avena fatua (AVEFA).
(§2) After sowing, at growth stage BBCH 12-14 (post-emergence), the plants are sprayed with an aqueous spray solution derived from the formulation of the technical active ingredient in acetone/water (50:50) solution containing 0.5% Tween 20 (polyoxyethlyene sorbitan monolaureate, CAS RN 9005-64-5). The test compounds are applied at the required concentration of active ingredient in g/ha. The test plants are then grown in a glasshouse under controlled environmental conditions and watered regularly as required. After 14±1 days post application (for post-emergence test), the test is evaluated by assessing the percentage damage caused to the plants in comparison with the untreated plots. The biological activities for post-emergence testing are shown below (Table 3 and Table 4) as a % visual injury.

[2] = tested on: Echinochloa crus-gaffi (ECHCG); assay: Post-emergence glasshouse test, visual injury, ECHCG; assay type: in vivo, Echinochloa crus-galli
Method: as §1, §2

Veronica persica (VERPE) = assay: Post-emergence glasshouse test, visual injury, VERPE; assay type: in vivo
Method: as §1, §2

[3] = tested on: Amaranthus retroflexus (AMARE); assay: Post-emergence glasshouse test, visual injury, AMARE; assay type: in vivo
Method: as §1, §2

Row | SMILES | pest or weed control at 125 g/ha [1] [%] | pest or weed control at 125 g/ha [2] [%] | pest or weed control at 125 g/ha (Veronica persica (VERPE)) [%] | pest or weed control at 125 g/ha [3] [%] | pest or weed control at 500 g/ha [1] [%] | pest or weed control at 500 g/ha [2] [%] | pest or weed control at 500 g/ha (Veronica persica (VERPE)) [%] | pest or weed control at 500 g/ha [3] [%] | other results
1 | Cc1cc(-c2cnc(NCc3cccc(Cl)c3)nc2C(C)C)on1 [Compound 117] | 30 | 70 | 70 | 70 | – | – | – | – | –
2 | Cc1cc(-c2cnc(NCCc3c(C)noc3C)nc2C(C)(C)C)on1 [Compound 68] | – | – | – | – | 0 | 0 | 0 | 80 | –
3 | Cc1cc(-c2cnc(N3CCN(c4ncccn4)CC3)nc2C(C)(C)C)on1 [Compound 61] | – | – | – | – | 0 | 0 | 0 | 60 | –
4 | Cc1cc(-c2cnc(N3CCC(O)C(C)C3)nc2C2CC2)on1 (stereo not drawn) [Compound 60] | – | – | – | – | 70 | 30 | 60 | 60 | –
5 | Cc1cc(-c2cnc(NC3CCC3)nc2C2CC2)on1 [Compound 12] | – | – | – | – | – | – | – | – | pest or weed control at 250 g/ha [1]: 30%; pest or weed control at 250 g/ha [2]: 90%; pest or weed control at 250 g/ha (Veronica persica (VERPE)): 100%; pest or weed control at 250 g/ha [3]: 100%
6 | COCCNc1ncc(-c2cc(C)no2)c(-c2ccc(C)o2)n1 [Compound 65] | – | – | – | – | 0 | 30 | 0 | 60 | –
7 | Cc1cc(-c2cnc(NCc3ccc(F)cc3)nc2C(C)C)on1 [Compound 93] | 60 | 80 | 100 | 100 | – | – | – | – | –
8 | Cc1cc(-c2cnc(NC(C)C)nc2-c2ccc(C)o2)on1 [Compound 51] | – | – | – | – | 0 | 70 | 0 | 0 | –
9 | Cc1cc(-c2cnc(N3CCC(O)CC3)nc2C(C)C)on1 [Compound 76] | – | – | – | – | 0 | 30 | 0 | 80 | –
10 | Cc1cc(-c2cnc(NCc3ccc(C#N)cc3)nc2C(C)C)on1 [Compound 118] | 0 | 20 | 95 | 80 | – | – | – | – | –
11 | Cc1cc(-c2cnc(NCC3CCCC3)nc2C(C)C)on1 [Compound 107] | 0 | 50 | 50 | 30 | – | – | – | – | –
12 | COc1ccc(CCNc2ncc(-c3cc(C)no3)c(C(C)C)n2)cc1OC [Compound 34] | – | – | – | – | 30 | 80 | 100 | 70 | –
13 | Cc1cc(-c2cnc(NCc3ccncc3)nc2C(C)C)on1 [Compound 18] | – | – | – | – | – | – | – | – | pest or weed control at 1000 g/ha ([1]; 1000 g/ha): 60%; pest or weed control at 1000 g/ha ([2]; 1000 g/ha): 30%; pest or weed control at 1000 g/ha (Veronica persica (VERPE); 1000 g/ha): 99%; pest or weed control at 1000 g/ha ([3]; 1000 g/ha): 90%
14 | Cc1cc(-c2cnc(NCc3cccc(F)c3)nc2C2CC2)on1 [Compound 85] | 30 | 80 | 50 | 95 | – | – | – | – | pest or weed control at 250 g/ha [1]: 40%; pest or weed control at 250 g/ha [2]: 100%; pest or weed control at 250 g/ha (Veronica persica (VERPE)): 100%; pest or weed control at 250 g/ha [3]: 100%
15 | Cc1cc(-c2cnc(N3CCC(C(N)=O)CC3)nc2C(C)C)on1 [Compound 69] | – | – | – | – | 0 | 0 | 60 | 50 | –
16 | Cc1cc(-c2cnc(NC(C)C)nc2C(C)(C)C)on1 [Compound 73] | – | – | – | – | 40 | 70 | 0 | 70 | –
17 | Cc1cc(-c2cnc(N3CCNC(=O)C3)nc2-c2ccc(C)o2)on1 [Compound 37] | – | – | – | – | 0 | 0 | 0 | 50 | –
18 | Cc1cc(-c2cnc(NCc3ccc(Cl)cc3)nc2C(C)C)on1 [Compound 102] | 40 | 80 | 100 | 100 | – | – | – | – | pest or weed control at 62 g/ha ([1]; 62 g/ha): 20%; pest or weed control at 62 g/ha ([2]; 62 g/ha): 80%; pest or weed control at 62 g/ha (Veronica persica (VERPE); 62 g/ha): 80%; pest or weed control at 62 g/ha ([3]; 62 g/ha): 98%
19 | Cc1cc(-c2cnc(NCCN3CCCC3=O)nc2C(C)C)on1 [Compound 42] | – | – | – | – | 10 | 50 | 60 | 70 | –
